The text below walks through data of patent publication EP4729529A1, “PREPARATION OF PEPTIDE INHIBITOR OF INTERLEUKIN-23 RECEPTOR AND USE THEREOF” (Xizang Haisco Pharmaceutical Co., Ltd., priority 2023, dated 2024).

Positions of bridges follow the written chain, without caps; N, C: chain ends. Non-standard residues stand in square brackets, D forms with d. Residues, ends and D or L forms follow the SMILES beside them. Phe(4-OC2H4NH2,2,3-(CH2)3) = NCCOc1ccc(C[C@H](N)C(=O)O)c2c1CCC2; Trp(7-Me) = Cc1cccc2c(C[C@H](N)C(=O)O)c[nH]c12; 2Nal = N[C@@H](Cc1ccc2ccccc2c1)C(=O)O; 3Pal = N[C@@H](Cc1cccnc1)C(=O)O; Pen = CC(C)(S)[C@H](N)C(=O)O; Thp = NC1(C(=O)O)CCOCC1; Sar = CNCC(=O)O Some results are limits rather than exact numbers.

In data set [1] the target is (Homo sapiens, UniProt Q5VWK5). Description: IL-23-stimulated pSTAT3 detection assay in PBMCs (ELISA). The following applies: rhIL23 stimulation 30 minutes, read-out: pSTAT3 inhibition/IC50. It counts as cell-based. Here is the method:
3. IL-23-stimulated pSTAT3 detection assay in PBMCs
Cryopreserved human PBMCs were thawed, and seeded onto a plate previously covered with an anti-CD3 antibody at 1 × 10^6 cells/well. Then, an anti-CD28 antibody was added to the plate, and the cells were incubated at 37°C with 5% CO2 for 5 days. On Day 5, the cells were seeded onto a 96-well plate at a density of 100K cells/well after 4 hours of stimulation by FBS starvation. The diluted Compound was transferred into the 96-well cell culture plate, and the plate was incubated at 37°C with 5% CO2 for 1 hour. rhIL23 (R&D, 1290-IL) was added to the cell culture plate, and the plate was incubated at 37°C with 5% CO2 for 30 minutes. The cells in the wells were lysed on ice with a lysis buffer containing 1× PHOSstop solution for 30 minutes, and the plate was centrifuged at 1000 rpm for 1 minute. Then, the supernatant was transferred into a 96-well ELISA plate, and pSTAT3 ELISA assay was performed according to the instructions of the kit (CST, 7300CA). Absorbance values at […] were read on PHERAstar FSX (BMG LRBTECH). The inhibition rate of the compounds was assessed using the following formula, and IC50 values were obtained by fitting with Graphpad.
Calculation formula of inhibition rate: [formula] • where Data negative: mean of DMSO control group; and • Data positive: mean of non-IL23-stimulated group
The calculation formula of IC50 was as follows: Y = Bottom + (Top−Bottom)/(1+10^(∧)((LogIC50−X)*HillSlope)) [formula] • where X: concentration of compound; and • Y: inhibition rate of compound. Table 3. pSTAT3 inhibition

Data set [2] is described as follows: Test of stability in plasma, dog. It is filed as in vitro ADME. The following applies: read-out: Residual rate% at 37°C for 6 h. Here is the method: 5. Test of stability in plasma
In this experiment, plasmas of five species, including human, monkey, dog, rat, and mouse, were used to evaluate the stability in plasma of Compound 7.
A plasma sample was prepared at a concentration level of 1000 ng/mL, and dispensed into EP tubes at time points 0 h and 6 h. Acetonitrile solution containing an internal standard was added directly to the 0 h sample; and the 6 h sample was placed at 37°C for the corresponding time, and then added with an acetonitrile solution containing internal standard. The concentration of the test compound in the sample was measured by the LC-MS/MS method, and the residual rate was calculated from the ratio of the peak areas of the test compound to the internal standard in the time point sample and the 0 h sample.
Experimental results: At the concentration level of 1000 ng/mL under the test conditions, the residual rates of the test Compounds were shown in Table 6 below. Table 6. Residual rate% at 37°C for 6 h

The nature of data set [3]: Test of stability in gastrointestinal fluid: simulated gastric fluid (pepsin). It is filed as in vitro ADME. The following applies: 0.5 mg/ml, 37°C. Here is the method: 6. Test of stability in gastrointestinal fluid
1.1. Preparation of dilute hydrochloric acid: 23.4 ml of hydrochloric acid was diluted with water to 1000 ml.
1.2. Preparation of simulated gastric fluid: 1.64 ml of dilute hydrochloric acid and 1 g of pepsin were added to about 80 ml of water. After being shaken well, the mixture was diluted with water to 100 ml.
About 12.5 mg of the sample was added to a 25 ml volumetric flask and dissolved in the simulated gastric fluid (or simulated intestinal fluid), and the mixture was diluted to the mark.
Instrument model: Agilent 1260 Infinity; mobile phase A: 10 mmol/L K2HPO4, and mobile phase B: acetonitrile; column: Phenomenex Gemini^@ 3 um C18 110Å 150 * 4.6 mm; wavelength: 224 nm; column temperature: 30°C; sample tray temperature: 37°C; injection time: 35 min; injection volume: 10 ul; injection mode: gradient injection; and gradient method. Table 7. Gradient mobile phase
Sampling and testing: Firstly, the blank solution (simulated gastric fluid or simulated intestinal fluid) was tested. Then, the prepared sample (newly prepared for use) was placed in the injection tray for immediate injection. Then, a needle of sample was injected at 4.5 h, 9.5 h, and 18 h, respectively.
Table 8. Stability in gastrointestinal fluid

Chain of (Homo sapiens, UniProt Q5VWK5) (Q5VWK5 24-629, other chains not shown): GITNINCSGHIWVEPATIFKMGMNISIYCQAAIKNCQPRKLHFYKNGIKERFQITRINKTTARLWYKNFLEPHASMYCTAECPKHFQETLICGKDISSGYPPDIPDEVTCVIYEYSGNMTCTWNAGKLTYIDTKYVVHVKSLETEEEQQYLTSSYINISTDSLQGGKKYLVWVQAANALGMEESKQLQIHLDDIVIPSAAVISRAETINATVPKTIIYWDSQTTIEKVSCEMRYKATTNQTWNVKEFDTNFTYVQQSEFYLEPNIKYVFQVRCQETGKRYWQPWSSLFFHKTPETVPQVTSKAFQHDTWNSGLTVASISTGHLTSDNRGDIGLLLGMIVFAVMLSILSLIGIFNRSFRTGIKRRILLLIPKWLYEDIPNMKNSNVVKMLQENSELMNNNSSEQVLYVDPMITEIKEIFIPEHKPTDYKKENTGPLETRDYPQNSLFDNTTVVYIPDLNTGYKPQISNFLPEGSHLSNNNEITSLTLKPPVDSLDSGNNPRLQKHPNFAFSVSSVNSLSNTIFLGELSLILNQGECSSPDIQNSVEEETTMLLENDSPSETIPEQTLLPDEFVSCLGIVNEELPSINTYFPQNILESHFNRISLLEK
Chain of (Homo sapiens, UniProt Q5VWK5) (Q9NPF7 20-189 partner, other chains not shown): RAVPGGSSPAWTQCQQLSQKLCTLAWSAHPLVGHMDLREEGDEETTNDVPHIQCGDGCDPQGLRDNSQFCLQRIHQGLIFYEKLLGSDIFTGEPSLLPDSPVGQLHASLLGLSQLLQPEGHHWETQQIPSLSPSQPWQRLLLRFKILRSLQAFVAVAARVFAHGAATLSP
Chain of (Homo sapiens, UniProt Q5VWK5) (P29460 23-328 partner, other chains not shown): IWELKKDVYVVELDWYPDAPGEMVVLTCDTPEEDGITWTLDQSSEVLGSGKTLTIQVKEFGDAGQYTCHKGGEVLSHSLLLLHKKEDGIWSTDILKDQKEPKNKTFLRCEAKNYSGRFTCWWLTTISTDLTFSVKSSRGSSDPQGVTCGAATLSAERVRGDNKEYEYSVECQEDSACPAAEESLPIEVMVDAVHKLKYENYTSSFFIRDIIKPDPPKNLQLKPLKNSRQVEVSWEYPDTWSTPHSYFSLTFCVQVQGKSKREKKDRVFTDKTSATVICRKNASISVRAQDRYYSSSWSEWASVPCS

Regarding `CC(=O)NCCCC[C@@H]1NC(=O)[C@H](Cc2c[nH]c3c(C)cccc23)NC(=O)[C@H]([C@@H](C)O)NC(=O)[C@H](Cc2c[nH]cn2)NC(=O)[C@@H](NC(C)=O)C(C)(C)SSC(C)(C)[C@@H](C(=O)N[C@@H](Cc2ccc(OCCN)c3c2CCC3)C(=O)N[C@@H](Cc2ccc3ccccc3c2)C(=O)NC2(C(=O)N[C@@H](CCC(=O)O)C(=O)N[C@@H](CC(N)=O)C(=O)N[C@@H](Cc3cccnc3)C(=O)N(C)CC(N)=O)CCOCC2)NC1=O` [Compound 7] (Ac-[Pen]HT[Trp(7-Me)]K(Ac)[Pen][Phe(4-OC2H4NH2,2,3-(CH2)3)][2Nal][Thp]EN[3Pal][Sar]-NH2; disulfide 1-6), in data set [1], the IC50 is 1.4 pM. Further, the remaining at 6 h, 1000 ng/mL in data set [2] was greater than 99%. The Peak area% in data set [3] (0 h) was 95.281%; in data set [3] (4.5 h), 94.678%; in data set [3] (9.5 h) it was 96.304%; in data set [3] (18 h), 93.661%.
